In patent publication US7662810B2, “2-arylmethylazetidine carbapenem derivatives and preparation thereof” (Korea Research Institute of Chemical Technology, priority 2004, dated 2010):
≈ marks a conversion by molar mass, not a printed value.

Columns and labels:
[1] = molecular target: T1, Dihydropeptidase-1 (DHP-1) (Sus scrofa, UniProt P22412)
T1 sequence (P22412 17-384): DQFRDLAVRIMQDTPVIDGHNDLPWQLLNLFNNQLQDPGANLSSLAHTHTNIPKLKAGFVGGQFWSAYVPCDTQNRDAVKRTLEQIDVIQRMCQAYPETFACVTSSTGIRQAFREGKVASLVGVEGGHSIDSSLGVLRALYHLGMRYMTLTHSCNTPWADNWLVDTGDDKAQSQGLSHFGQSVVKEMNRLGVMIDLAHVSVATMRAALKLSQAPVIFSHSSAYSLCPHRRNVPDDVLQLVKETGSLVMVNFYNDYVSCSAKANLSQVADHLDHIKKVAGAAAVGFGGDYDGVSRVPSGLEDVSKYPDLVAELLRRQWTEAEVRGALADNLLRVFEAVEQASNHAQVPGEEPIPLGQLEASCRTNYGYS
Procedure: The rate of degradation of the inventive compounds by the action of DHP-1 enzyme extracted from hog kidney was determined as follow.
0.2 unit of the enzyme was allowed to react with the above solution at 30° C., and the absorbance at 299 nm of the remaining medicament was measured to determine the degradation rate. The absorbance was measured at 0, 0.5, 1, 2 and 4 hour points, and T1/2, the time when the concentration of the medicament become the half, was obtained by regression analysis.

[2] = test system: Enterobacter cloacae 1321 E; assay: Measurement of Minimum Inhibitory Concentration (MIC); type: cell-based
Procedure: (§1) The antibacterial activities of the compounds of the present invention prepared in the above Examples against Gram-positive and Gram-negative bacteria, MRSA and QRS were tested as follows.
(§2) Respective bacterial strains were inoculated into 3 ml of Fleisch extract broth (beef extract 1%, peptone 1%, NaCl 0.3%, Na2HPO4.12H2O 0.2%, pH 7.4-7.5. 10% horse serum was supplemented for Streptococcus pyogenes and S. facium) and cultured on a shaking incubator at 37° C. for 18 hours. About 10^4 CFU/spot of the cultured bacterial strains were inoculated onto Müller-Hinton agar plates containing serial double dilutions (final concentration of 0.002 to 100 μg/ml) of a test compound employing an automatic inoculator (Dynatech, USA), and incubated at 37° C. for 18 hours. When the incubation was completed, the minimum inhibitory concentration was determined. Meropenem (Yuhan corporation, Korea) and vancomycin (Cj Inco., Korea) were used as standard antibiotics, respectively.

[3] = test system: Enterobacter cloacae P 99; assay: as above; type: cell-based
Procedure: as §1, §2

Escherichia coli 078 = assay: as above; type: cell-based
Procedure: as §1, §2

Escherichia coli 1507 E = assay: as above; type: cell-based
Procedure: as §1, §2

Escherichia coli DC 0 = assay: as above; type: cell-based
Procedure: as §1, §2

Escherichia coli DC 2 = assay: as above; type: cell-based
Procedure: as §1, §2

Escherichia coli TEM = assay: as above; type: cell-based; settings: Escherichia coli
Procedure: as §1, §2

[4] = test system: Klebsiella aerogenes 1522 E; assay: as above; type: cell-based
Procedure: as §1, §2

[5] = test system: Klebsiella oxytoca 1082 E; assay: as above; type: cell-based
Procedure: as §1, §2

[6] = test system: Salmonella typhimurium 179; assay: as above; type: cell-based; settings: Salmonella enterica, TYPHIMURIUM
Procedure: as §1, §2

[7] = test system: Staphylococcus aureus 285; assay: as above; type: cell-based
Procedure: as §1, §2

[8] = test system: Staphylococcus aureus 503; assay: as above; type: cell-based
Procedure: as §1, §2

[9] = test system: Staphylococcus faecium MD 8b; assay: as above; type: cell-based; settings: Staphylococcus, MD8B
Procedure: as §1, §2

[10] = test system: Staphylococcus pyogenes 308A; assay: as above; type: cell-based; settings: Staphylococcus aureus, 308A
Procedure: as §1, §2

[11] = test system: Staphylococcus pyogenes 77A; assay: as above; type: cell-based; settings: Staphylococcus aureus, 77A
Procedure: as §1, §2

[12] = test system: Staphylococcus aureus 121E; assay: Measurement of Minimum Inhibitory Concentration (MIC), MRSA; type: cell-based; settings: Staphylococcus aureus
Procedure: as §1, §2

[13] = test system: Staphylococcus aureus 208E; assay: as above; type: cell-based; settings: Staphylococcus aureus
Procedure: as §1, §2

[14] = test system: Staphylococcus aureus 256E; assay: as above; type: cell-based; settings: Staphylococcus aureus
Procedure: as §1, §2

[15] = test system: Staphylococcus aureus 690E; assay: as above; type: cell-based; settings: Staphylococcus aureus
Procedure: as §1, §2

[16] = test system: Staphylococcus aureus 692E; assay: as above; type: cell-based; settings: Staphylococcus aureus
Procedure: as §1, §2

[17] = test system: Staphylococcus aureus 693E; assay: as above; type: cell-based; settings: Staphylococcus aureus
Procedure: as §1, §2

[18] = test system: Staphylococcus aureus 694E; assay: as above; type: cell-based; settings: Staphylococcus aureus
Procedure: as §1, §2

[19] = test system: Staphylococcus aureus 695E; assay: as above; type: cell-based; settings: Staphylococcus aureus
Procedure: as §1, §2

[20] = test system: Staphylococcus aureus 697E; assay: as above; type: cell-based; settings: Staphylococcus aureus
Procedure: as §1, §2

[21] = test system: Staphylococcus aureus 88E; assay: as above; type: cell-based; settings: Staphylococcus aureus
Procedure: as §1, §2

[22] = test system: Staphylococcus aureus 179; assay: Measurement of Minimum Inhibitory Concentration (MIC), QRS; type: cell-based; settings: Staphylococcus aureus, 179
Procedure: as §1, §2

[23] = test system: Staphylococcus aureus 241; assay: as above; type: cell-based; settings: Staphylococcus aureus, 241
Procedure: as §1, §2

[24] = test system: Staphylococcus aureus 293; assay: as above; type: cell-based; settings: Staphylococcus aureus, 293
Procedure: as §1, §2

[25] = test system: Staphylococcus epidermidis 178; assay: as above; type: cell-based; settings: Staphylococcus epidermidis, 178
Procedure: as §1, §2

[26] = test system: Staphylococcus epidermidis 291; assay: as above; type: cell-based; settings: Staphylococcus epidermidis, 291
Procedure: as §1, §2

With `C[C@@H](O)[C@H]1C(=O)N2C(C(=O)[O-])=C(SC3CN(Cc4cccc(C(F)(F)F)c4)C3)[C@H](C)[C@H]12.[K+]` [Exam. 20, Potassium(1R,5S,6S)-2-[1-(3-trifluoromethylbenzyl)-azetidine-3-yl-thio]-6-[(1R)-1-hydroxylethyl]-1-methylcarbapen-2-em-3-carboxylate] the “Relative T1/2” value [1] was 0.88 and the “T1/2 (time when the concentration of the medicament become the half)” value [1] was 16.03.

With `C[C@H](c1ccccc1)N1CC(SC2=C(C(=O)[O-])N3C(=O)[C@H]([C@@H](C)O)[C@H]3[C@H]2C)C1.[K+]` [Exam. 21, Potassium(1R,5S,6S)-2-{1-[(1R)-1-phenylethyl]-azetidine-3-yl-thio}-6-[(1R)-1-hydroxylethyl]-1-methylcarbapen-2-em-3-carboxylate] the “Relative T1/2” value [1] was 1.88 and the “T1/2 (time when the concentration of the medicament become the half)” value [1] was 38.43.

For `Cc1ccc(CN2CC(SC3=C(C(=O)[O-])N4C(=O)[C@H]([C@@H](C)O)[C@H]4[C@H]3C)C2)cc1.[K+]` [Exam. 23, Potassium(1R,5S,6S)-2-[1-(4-methylbenzyl)-azetidine-3-yl-thio]-6-[(1R)-1-hydroxylethyl]-1-methylcarbapen-2-em-3-carboxylate], the “Relative T1/2” value [1] was 1.38 and the “T1/2 (time when the concentration of the medicament become the half)” value [1] was 25.24.

With `CC(c1ccc(Br)cc1)N1CC(SC2=C(C(=O)[O-])N3C(=O)[C@H]([C@@H](C)O)[C@H]3[C@H]2C)C1.[K+]` (stereo partly drawn) [Exam. 24, Potassium(1R,5S,6S)-2-{1-[1-(4-bromophenyl)ethyl]-azetidine-3-yl-thio}-6-[(1R)-1-hydroxylethyl]-1-methylcarbapen-2-em-3-carboxylate] the “Relative T1/2” value [1] was 1.08 and the “T1/2 (time when the concentration of the medicament become the half)” value [1] was 19.71.

In the case of `CN[C@H](CC(C)C)C(=O)N[C@H]1C(=O)N[C@@H](CC(N)=O)C(=O)N[C@H]2C(=O)N[C@H]3C(=O)N[C@H](C(=O)N[C@H](C(=O)O)c4cc(O)cc(O)c4-c4cc3ccc4O)[C@H](O)c3ccc(c(Cl)c3)Oc3cc2cc(c3O[C@@H]2O[C@H](CO)[C@@H](O)[C@H](O)[C@H]2O[C@H]2C[C@](C)(N)[C@H](O)[C@H](C)O2)Oc2ccc(cc2Cl)[C@H]1O` [Vancomycin, vancomycin, reference compound], the MIC [2] is reported as 100 µg/mL (≈ 69 µM), the MIC [3] is reported as 100 µg/mL (≈ 69 µM) and the MIC (Escherichia coli 078) is reported as 100 µg/mL (≈ 69 µM). For the same compound, the MIC (Escherichia coli 1507 E) was 100 µg/mL (≈ 69 µM), the MIC (Escherichia coli DC 0) was 100 µg/mL (≈ 69 µM) and the MIC (Escherichia coli DC 2) was 50 µg/mL (≈ 34.5 µM). For the same compound, the MIC (Escherichia coli TEM) was 100 µg/mL (≈ 69 µM), the MIC [4] was 100 µg/mL (≈ 69 µM) and the MIC [5] was 100 µg/mL (≈ 69 µM). For the same compound, the MIC [6] was 100 µg/mL (≈ 69 µM), the MIC [7] was 0.391 µg/mL (≈ 0.27 µM) and the MIC [8] was 0.391 µg/mL (≈ 0.27 µM). For the same compound, the MIC [9] was 0.391 µg/mL (≈ 0.27 µM), the MIC [10] was 0.781 µg/mL (≈ 0.539 µM) and the MIC [11] was 0.391 µg/mL (≈ 0.27 µM). It also gave an MIC [12] of 0.781 µg/mL (≈ 0.539 µM), an MIC [13] of 0.781 µg/mL (≈ 0.539 µM) and an MIC [14] of 0.781 µg/mL (≈ 0.539 µM). For the same compound, the MIC [15] was 0.391 µg/mL (≈ 0.27 µM), the MIC [16] was 0.781 µg/mL (≈ 0.539 µM) and the MIC [17] was 1.56 µg/mL (≈ 1.08 µM). For the same compound, the MIC [18] was 1.56 µg/mL (≈ 1.08 µM), the MIC [19] was 1.56 µg/mL (≈ 1.08 µM) and the MIC [20] was 0.781 µg/mL (≈ 0.539 µM). The MIC [21] was 0.781 µg/mL (≈ 0.539 µM), the MIC [22] was 0.781 µg/mL (≈ 0.539 µM) and the MIC [23] was 0.781 µg/mL (≈ 0.539 µM). The MIC [24] was 0.781 µg/mL (≈ 0.539 µM), the MIC [25] was 1.56 µg/mL (≈ 1.08 µM) and the MIC [26] was 1.56 µg/mL (≈ 1.08 µM).
